Tests used:
[1] = tested on: Tx2783, an herbicide susceptible elite sorghum genotype; assay: Greenhouse herbicide spray selection, susceptible check; type: in vivo
Text: (§1) Seeds of 83 wild sorghum populations from Bolivia were planted in a greenhouse for comparison with Tx2783, an herbicide susceptible elite sorghum genotype. Wild sorghum genotypes were planted in flats containing MetroMix 360 potting soil (Sun Gro) and greenhouse grown. Tx2783 was planted with the wild accessions in each flat for comparison. In one selection using clethodim, plants were sprayed with 0.09 lb ai clethodim acre^−1 at 18 days after planting. […] In one selection using fluazifop-P, flats with Tx2783 and wild accessions were sprayed with a rate of 0.12 lb ai fluazifop-P acre^−1 at 18 days after planting and with 0.36 lb ai fluazifop-P acre^−1 at 32 days after planting. […] In a third experiment, plants were sprayed with a rate of 0.05 lb ai quizalofop acre^−1 at 18 days after planting and with 0.11 lb ai quizalofop acre^−1 at 32 days after planting.

[2] = tested on: wild sorghum populations from Bolivia; assay: Greenhouse herbicide spray selection, wild accessions; type: in vivo; conditions: 83 wild populations
Text: as §1

[3] = tested on: Bol-71 wild sorghum genotype; assay: Greenhouse herbicide spray selection, Bol-71; type: in vivo
Text: as §1

[4] = tested on: Pioneer 84G62 (herbicide susceptible control); assay: Mode of inheritance greenhouse spray test, susceptible control; type: in vivo, sorghum; conditions: 0.045 lb ai fluazifop-P acre^-1 at 14 days after planting; n=3
Description: (§2) The mode of inheritance of herbicide tolerance was determined by planting seeds of Bol-71, F1 generation of cross ATx623 x Bol-71, and Pioneer 84G62 (herbicide susceptible control) in flats containing MetroMix 360 potting soil in a greenhouse using a randomized complete block design (n=3). The plants were sprayed with 0.045 lb ai fluazifop-P acre^−1 at 14 days after planting. Pioneer 84G62 died between 12-16 days after spraying.

Bol-71 = assay: Mode of inheritance greenhouse spray test, Bol-71; type: in vivo, wild sorghum; conditions: 0.045 lb ai fluazifop-P acre^-1 at 14 days after planting; n=3
Description: as §2

[5] = tested on: F1 generation of cross ATx623 x Bol-71; assay: Mode of inheritance greenhouse spray test, F1 hybrid; type: in vivo, sorghum; conditions: 0.045 lb ai fluazifop-P acre^-1 at 14 days after planting; n=3
Description: as §2

[6] = 0.05 lb ai quizalofop acre^-1 at 18 days and 0.11 lb ai acre^-1 at 32 days after planting
[7] = 0.12 lb ai fluazifop-P acre^-1 at 18 days and 0.36 lb ai acre^-1 at 32 days after planting

SMILES	plant response to spraying [1, 6]	plant response to spraying [2, 6]	tolerance to herbicide [3, 6]	plant response to spraying [1, 7]	plant response to spraying [2, 7]	tolerance to herbicide [3, 7]	time at which plants died [4]	herbicide damage (Bol-71)	herbicide damage [5]
CC(Oc1ccc(Oc2cnc3cc(Cl)ccc3n2)cc1)C(=O)O (stereo not drawn) [quizalofop]	died	many of the wild sorghums died	high levels of tolerance	–	–	–	–	–	–
C[C@@H](Oc1ccc(Oc2ccc(C(F)(F)F)cn2)cc1)C(=O)O [fluazifop-P]	–	–	–	died	many of the wild sorghums died	high levels of tolerance	12-16 days after spraying	no herbicide damage	no herbicide damage

From patent US20100115663A1, “Acetyl-CoA Carboxylase Herbicide Resistant Sorghum” (priority 2007, published 2010)
